Assay results from PubChem BioAssay AID2483 (Sanford-Burnham Center for Chemical Genomics, 2010).
Active and inactive are the calls of the source. No rule for the calls is given here.

What follows are molecules tested on TNFa-induced NF-kB reporter inhibition, human cells (assay: TNFa-triggered NF-kB activation inhibitors, SAR follow-up, cell-based, set 2 (AID 2483)).

Structure (SMILES) | IC50
C/C=C/Cn1c(SCc2ccc(Cl)cc2)nc2c1c(=O)[nH]c(=O)n2C | > 20 µM (inactive)
CCCCn1c(SCC(=O)Nc2nnc(CC)s2)nc2c1c(=O)n(C)c(=O)n2C | 13.1 µM
CCCCCn1c(SCCc2ccccc2)nc2c1c(=O)[nH]c(=O)n2C | > 20 µM (inactive)
CCC(=O)Nc1nc2ccccc2n1Cc1ccccc1Cl | 16.9 µM
C=CCn1c(SCCCc2ccccc2)nc2c1c(=O)[nH]c(=O)n2C | 16.8 µM
CCCCn1c(SCC(=O)c2ccccc2)nc2c1c(=O)[nH]c(=O)n2C | > 20 µM (inactive)
C/C=C/Cn1c(SCCCc2ccccc2)nc2c1c(=O)[nH]c(=O)n2C | 8.49 µM
CCCn1c(SCC(=O)Nc2nc3c(s2)CCCC3)nc2c1c(=O)n(C)c(=O)n2C | 3.31 µM
COCCn1c(SCCCc2ccccc2)nc2c1c(=O)[nH]c(=O)n2C | > 20 µM (inactive)
CC(C)n1c(SCCCc2ccccc2)nc2c1c(=O)[nH]c(=O)n2C | > 20 µM (inactive)
CC(C)Sc1nc2c(c(=O)[nH]c(=O)n2C)n1Cc1ccccc1 | > 20 µM (inactive)
Cc1ccc(S(=O)(=O)n2c(N)nc3ccccc32)cc1 | > 20 µM (inactive)
C/C=C/Cn1c(SCc2ccccc2)nc2c1c(=O)[nH]c(=O)n2C | > 20 µM (inactive)
O=C(Nc1nc2ccccc2n1Cc1ccc(Cl)cc1)c1ccco1 | > 20 µM (inactive)
CCCn1c(SCCc2ccccc2)nc2c1c(=O)[nH]c(=O)n2C | > 20 µM (inactive)
CCCCn1c(CN2CCN(c3cccc(Cl)c3)CC2)nc2c1c(=O)n(C)c(=O)n2C | 5.69 µM
Cn1c(=O)[nH]c(=O)c2c1nc([N+](=O)[O-])n2Cc1ccccc1 | 1.32 µM
C/C(Cl)=C\Cn1c(NCCc2ccccc2)nc2c1c(=O)n(C)c(=O)n2C | 5.21 µM
